Test [1] has as its target T1, Tyrosine-protein phosphatase non-receptor type 1 (Homo sapiens, UniProt P18031).
T1 sequence (P18031 whole entry): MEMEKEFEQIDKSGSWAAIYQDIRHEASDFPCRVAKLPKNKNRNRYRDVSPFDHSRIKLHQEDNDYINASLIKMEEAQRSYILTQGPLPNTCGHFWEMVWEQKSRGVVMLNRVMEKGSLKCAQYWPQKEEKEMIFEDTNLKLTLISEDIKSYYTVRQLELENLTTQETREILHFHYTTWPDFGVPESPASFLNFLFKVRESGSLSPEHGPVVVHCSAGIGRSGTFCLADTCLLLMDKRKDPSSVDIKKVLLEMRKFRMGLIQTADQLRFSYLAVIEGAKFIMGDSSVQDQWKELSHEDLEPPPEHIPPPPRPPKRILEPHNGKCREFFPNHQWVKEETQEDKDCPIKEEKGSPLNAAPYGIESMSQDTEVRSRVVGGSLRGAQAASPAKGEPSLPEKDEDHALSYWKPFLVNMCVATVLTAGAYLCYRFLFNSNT
As to the kind of experiment: Inhibition of human PTP1B.

A further test concerns Staphylococcus aureus. Put plainly: Antibacterial activity against Staphylococcus aureus Newman […]. The class given is functional, organism-based.
The target in test [2] is Amyloid-beta precursor protein (Homo sapiens) (UniProt P05067). As to the kind of experiment: Neuroprotectivie activity against amyloid beta (25 to 35)-induced toxicity in human SH-SY5Y cells assessed as increase in cell viability at 10 uM incubated for 2 hrs prior to amyloid beta (25 to 35)-challenge measured after 24 hrs by MTT assay relative to control. It counts as functional, cell-based.

The nature of test [3]: Neuroprotectivie activity against serum deprivation-induced toxicity in human SH-SY5Y cells assessed as increase in cell viability at 10 uM relative to control. The class given is functional.

In brackets after ≈: the same amount, converted by molar mass.

In general, IC50 refers to the concentration at which inhibition is half-maximal. Higher therefore signals weaker potency in that assay. As usually defined, the MIC50 is the lowest concentration that inhibits either 50% of growth or 50% of the strains tested, depending on the study.

Amyloid-beta precursor protein (Homo sapiens), sequence (P05067 whole entry): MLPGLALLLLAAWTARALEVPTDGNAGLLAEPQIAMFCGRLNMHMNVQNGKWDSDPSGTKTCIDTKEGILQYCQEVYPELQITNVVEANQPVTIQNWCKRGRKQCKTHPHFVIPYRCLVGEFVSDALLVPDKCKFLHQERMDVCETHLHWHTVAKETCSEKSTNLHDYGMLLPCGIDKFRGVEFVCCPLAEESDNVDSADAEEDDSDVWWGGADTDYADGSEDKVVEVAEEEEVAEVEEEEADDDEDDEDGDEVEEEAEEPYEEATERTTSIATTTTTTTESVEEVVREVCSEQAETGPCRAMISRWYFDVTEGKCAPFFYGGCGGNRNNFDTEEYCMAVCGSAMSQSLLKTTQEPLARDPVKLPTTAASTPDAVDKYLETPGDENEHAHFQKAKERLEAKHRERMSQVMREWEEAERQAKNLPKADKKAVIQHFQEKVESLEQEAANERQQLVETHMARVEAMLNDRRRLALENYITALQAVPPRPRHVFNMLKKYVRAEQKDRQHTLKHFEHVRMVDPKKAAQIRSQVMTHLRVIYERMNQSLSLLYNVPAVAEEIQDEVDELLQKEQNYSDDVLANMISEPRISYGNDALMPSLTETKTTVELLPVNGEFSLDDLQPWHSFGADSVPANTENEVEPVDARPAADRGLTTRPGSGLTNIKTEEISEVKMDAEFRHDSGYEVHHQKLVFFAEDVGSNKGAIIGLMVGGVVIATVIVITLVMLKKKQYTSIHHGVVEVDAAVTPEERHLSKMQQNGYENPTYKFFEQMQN

In the case of `C=C(CC[C@@H](C)[C@H]1CC[C@H]2[C@@H]3CC[C@H]4[C@H](C)[C@@H](O)CC[C@]4(C)[C@H]3CC[C@]12C)C(C)C`, the half-inhibitory concentration (IC50) in test [1] came to 19.5 µM. In other words, the double-digit micromolar range.

`C=C(CC[C@@H](C)[C@H]1CC[C@@H]2[C@]1(C)CC[C@H]1[C@]23CC[C@]2(C[C@@H](O)CC[C@]12C)OO3)C(C)C`: in the test with Staphylococcus aureus, the MIC50 came to 500 µM (≈ 215 µg/mL).

In turn, `C[C@@H]1O[C@@H]1P(=O)(O)O` [FOSFOMYCIN SODIUM] returned an IC50 in the test on Staphylococcus aureus of 137 µM.

Take `C=C(CC[C@@H](C)[C@H]1CC[C@@H]2[C@]1(C)CC[C@@H]1[C@@]3(C)CC[C@H](OC(C)=O)[C@@H](C)[C@@H]3CC[C@@]21O)C(C)C`: in test [1], the midpoint of inhibition, the IC50, lay at 22.7 µM.

On to `C=C(CC[C@@H](C)[C@H]1CC[C@@H]2[C@]1(C)C[C@H](O)[C@@H]1[C@@]3(C)CC[C@H](O)[C@@H](C)[C@@H]3CC[C@@]21O)C(C)C`, for which the Activity in test [2] was found to be 20.1%.

As to `C=C(CC[C@@H](C)[C@H]1CC[C@H]2[C@@H]3C[C@@H](O)[C@@]4(O)C[C@@H](O)CC[C@]4(COC(C)=O)[C@H]3CC[C@]12C)C(C)C` [ARMATINOL B], the MIC50 in the test on Staphylococcus aureus is 15.6 µM (≈ 7.66 µg/mL).

Take `C=C(CC[C@@H](C)[C@H]1CC[C@H]2[C@@H]3CCC4=CC(=O)CC[C@]4(C)[C@H]3CC[C@]12C)C(C)C`: the Activity in test [3] amounted to 16.9%; in test [2] it was 16.6%. Further, half-maximal inhibition in test [1] (IC50) was put at 15.3 µM.

In the case of `C=C(CC[C@@H](C)[C@H]1CC[C@H]2[C@@H]3[C@@H](OC(C)=O)C=C4C[C@@H](O)CC[C@]4(CO)[C@H]3CC[C@]12C)C(C)C`, the MIC50 with Staphylococcus aureus came out at 1000 µM (≈ 473 µg/mL).

Values taken from ChEMBL document CHEMBL2321710, “Bioactive polyhydroxylated steroids from the Hainan soft coral Sinularia depressa Tixier-Durivault” (Bioorg Med Chem Lett, 2013).
